Here are results for two molecules from patent US10517862B2, “Fused heterocyclic compound derivative and application thereof” (NHWA PHARMA. CORPORATION, priority 2015, dated 2019).

One series addresses 5HT2A receptor (Rattus norvegicus, UniProt P14842). In words: 5HT2A receptor binding assay ([3H]-Ketanserin, rat striatum membrane). Particulars: for inhibition at 10 µM: read-out: 5HT2A Inhibition rate (%); for affinity with 5HT2A (in words): summary of in vitro assay.
Another series has as its target T1, 5HT2C receptor (Rattus norvegicus, UniProt P08909).
T1 construct: from tissue; host or cells: rat brain striatum
T1 sequence (P08909 33-460): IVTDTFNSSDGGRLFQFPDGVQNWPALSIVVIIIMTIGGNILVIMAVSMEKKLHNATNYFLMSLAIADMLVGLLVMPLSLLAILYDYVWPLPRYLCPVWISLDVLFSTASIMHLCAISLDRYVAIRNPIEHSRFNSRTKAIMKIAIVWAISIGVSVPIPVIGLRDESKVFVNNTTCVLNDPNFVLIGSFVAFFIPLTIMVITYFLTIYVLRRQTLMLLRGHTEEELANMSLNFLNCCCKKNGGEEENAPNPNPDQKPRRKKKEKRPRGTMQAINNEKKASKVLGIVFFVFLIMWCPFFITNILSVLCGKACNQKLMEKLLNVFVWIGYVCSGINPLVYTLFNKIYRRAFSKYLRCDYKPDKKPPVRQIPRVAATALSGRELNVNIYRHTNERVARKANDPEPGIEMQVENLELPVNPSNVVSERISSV
In words: 5HT2C receptor binding assay ([3H]-mesulergine, rat striatum membrane). Particulars: for affinity with 5HT2C (in words): summary of in vitro assay; for inhibition at 10 µM: test compound final concentration 10^−5 M, [3H]-mesulergine, rat striatum membrane, read-out: 5HT2C Inhibition rate (%). As to the method:
Preparation of 5HT2C Membrane
Rats were decapitated on ice. […] Centrifugation was conducted.
(§1) Materials for the Receptor Binding Assay

The next series deals with mice of Kunming breed. Put plainly: MK-801 induced high activity in mice. It is filed as in vivo. Particulars: Mus musculus, 1.5 h, po, MK-801 0.1 mg/kg ip, spontaneous activities in 90 min. As to the method:
Example 54: MK-801 Induced High Activity—the In Vivo Anti-Schizophrenia Activity of the Compounds
Healthy mice of Kunming breed (with half male and half female, (20±2) g) were provided by Qinglongshan Animal Cultivation Center, Nanjing.
Ascorbic acid was provided by Sinopharm Chemical Reagent Co. Ltd.
MK-801 was produced by Sigma Company, USA; the formulation method: 0.1% vitamin C was used to formulate a 1 mg/ml solution.
Test positive drugs: haloperidol, clozapine, risperidone, olanzapine, aripiprazole, ziprasidone, quetiapine.
Tween 80, with the concentration of 10%.
Mice with qualified body weight were selected, and randomly divided into blank group, model group, positive control group (risperidone group) and drug group. […] 1 h after the administration, 0.1% concentration of ascorbic acid was intraperitoneally injected to the blank group at 0.1 ml/10 g; and the model group, the positive control group (30 min) and the drug group were intraperitoneally injected the MK-801 solution at 0.1 mg/kg. Subsequently, the spontaneous activities of the mice of each group in 90 min were measured.

The next series addresses T2, D3 receptor (Homo sapiens, UniProt P35462).
T2 construct: expressed in transfected cells; host or cells: HEK-293
Put plainly: D3 receptor assay ([3H]-Spiperone, HEK-293 cells). The class given is binding. Particulars: for affinity with D3 (in words): summary of in vitro assay; for inhibition at 10 µM: test compound final concentration 10 μmol/L, [3H]-Spiperone, HEK-293 cells, read-out: D3 Inhibition rate (%).

The target in the next series is T3, 5HT1A receptor (Rattus norvegicus, UniProt P19327).
T3 construct: Rats were decapitated on ice; from tissue; host or cells: rat brain striatum
T3 sequence (P19327 1-422): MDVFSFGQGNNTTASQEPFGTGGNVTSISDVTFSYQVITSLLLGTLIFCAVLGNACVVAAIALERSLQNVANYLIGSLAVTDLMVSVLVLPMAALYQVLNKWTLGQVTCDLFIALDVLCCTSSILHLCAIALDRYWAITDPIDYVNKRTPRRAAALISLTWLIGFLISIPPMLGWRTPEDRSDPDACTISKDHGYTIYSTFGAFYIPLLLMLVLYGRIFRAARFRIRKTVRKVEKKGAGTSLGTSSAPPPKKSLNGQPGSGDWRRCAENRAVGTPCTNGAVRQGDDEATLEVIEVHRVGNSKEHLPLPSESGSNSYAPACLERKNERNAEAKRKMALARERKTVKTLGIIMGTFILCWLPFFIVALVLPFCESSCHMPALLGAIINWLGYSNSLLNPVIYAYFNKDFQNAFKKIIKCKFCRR
In words: 5HT1A receptor binding assay (3H-8-OH-DPAT, rat striatum membrane). Particulars: for affinity with 5HT1A (in words): summary of in vitro assay; for inhibition at 10 µM: test compound final concentration 10^−5 M, 3H-8-OH-DPAT, rat striatum membrane, read-out: 5HT1A Inhibition rate (%). As to the method:
Preparation of 5HT1A Membrane
Rats were decapitated on ice. […] Incubation at 37° C. was conducted for 10 min. […] Centrifugation was conducted at 12000 rpm, 4° C. for 20 min. […] Centrifugation was conducted and repeated 3 times.
as §1

Another series deals with D2 receptor. Put plainly: D2 receptor binding assay (3H-Spiperone, rat striatum membrane). Particulars: for affinity with D2 (in words): summary of in vitro assay; for D2 Inhibition rate (%): test compound final concentration 10^−5 M, 3H-Spiperone, rat striatum membrane. As to the method: Preparation of D2 Membrane
Rats were decapitated on ice. […] The weight of the homogenized tubes were adjusted using a balance, and centrifugation was conducted. […] Centrifugation was conducted.
as §1

A short description of the next series: Catalepsy assay in mice. Particulars: both sexes, Kunming, mouse, in vivo, po, bar test at 30, 60, 90 min. As to the method: Healthy mice of Kunming breed (with half male and half female, (22±2) g) were provided by Qinglongshan Animal Cultivation Center, Nanjing.
Instruments: self-made bar-grabbing apparatus: stainless steel bar in mice box, which was 0.3 cm in diameter and […].
Corresponding solvent double-distilled water was administered intragastrically to the negative control group and the model group, corresponding positive drugs were administered intragastrically to the positive drug groups (a small amount of acetic acid was first added and then double-distilled water was added when dissolving), and corresponding dosages of compounds were administered intragastrically to the compound groups for each dosage, with the volume for intragastric administration as 0.1 ml/10 g. At 30 min, 60 min, 90 min after the intragastric administration, the two forepaws of the mice were gently placed on the bars (which were 20 cm in length, 0.3 cm in diameter, and 5.5 cm above the bench), and the hindpaws of the animals were placed on the bottom of the box. The durations of the mice to maintain the posture with the two forepaws on the bars were recorded, and 30 s of spasticity without moving was considered as the positive response. In the case the forepaws of the mice were not put down persistently, the observation was terminated at 60 s. The numbers of animals with positive response in each of the compound dosage groups were counted.

A value given as a limit tells only on which side of the number the result lay.

T2 sequence (P35462 whole entry): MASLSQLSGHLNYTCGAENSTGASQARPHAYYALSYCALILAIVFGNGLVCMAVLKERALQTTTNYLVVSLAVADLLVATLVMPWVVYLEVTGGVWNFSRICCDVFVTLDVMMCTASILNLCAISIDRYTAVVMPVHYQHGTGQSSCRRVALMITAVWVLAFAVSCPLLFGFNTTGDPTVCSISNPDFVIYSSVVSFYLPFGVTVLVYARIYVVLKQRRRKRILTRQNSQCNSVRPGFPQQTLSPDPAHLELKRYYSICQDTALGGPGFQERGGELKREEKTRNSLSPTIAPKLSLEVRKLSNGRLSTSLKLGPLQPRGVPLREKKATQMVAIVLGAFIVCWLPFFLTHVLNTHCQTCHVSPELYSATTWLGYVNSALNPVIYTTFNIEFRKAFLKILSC
Sequence of 5HT2A receptor (P14842 whole entry): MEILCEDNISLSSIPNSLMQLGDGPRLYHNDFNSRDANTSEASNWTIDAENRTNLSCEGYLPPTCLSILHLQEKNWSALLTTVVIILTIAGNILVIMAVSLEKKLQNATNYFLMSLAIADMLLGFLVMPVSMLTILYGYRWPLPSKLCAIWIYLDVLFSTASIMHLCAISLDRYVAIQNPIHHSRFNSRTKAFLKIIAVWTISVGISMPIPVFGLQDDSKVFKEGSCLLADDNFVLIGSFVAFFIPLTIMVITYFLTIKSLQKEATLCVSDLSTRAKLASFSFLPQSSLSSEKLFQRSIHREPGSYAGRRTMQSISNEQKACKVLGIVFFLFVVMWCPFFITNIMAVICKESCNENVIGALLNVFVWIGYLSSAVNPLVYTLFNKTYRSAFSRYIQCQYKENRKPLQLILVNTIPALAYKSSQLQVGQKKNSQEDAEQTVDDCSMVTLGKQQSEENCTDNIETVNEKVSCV

As for `O=C(CCCN1CCC(c2noc3cc(F)ccc23)CC1)c1cc2c3c(c1)CCC(=O)N3CCC2` [Compound 5], on 5HT2A receptor, the inhibition – broadly, the percentage by which the read-out fell short of the control – at 10 µM worked out at 99.5% and the “affinity with 5HT2A (in words)” value is reported as “high affinities”. Moreover, on 5HT2C receptor, the “affinity with 5HT2C (in words)” value is recorded as “low affinities” and the inhibition at 10 µM was found to be 66.8%. Moreover, the ED50 (as a rule, the dose at which the effect has come halfway, by size or by number of responders) with mice of Kunming breed came out at 2.2 mg/kg. Besides, at D3 receptor, the “affinity with D3 (in words)” value is listed as “high affinities” and the inhibition at 10 µM came out at 98%. For the same molecule, at 5HT1A receptor, the “affinity with 5HT1A (in words)” value was “high affinities” and the inhibition at 10 µM was determined as 99.8%. In the series on D2 receptor, the “affinity with D2 (in words)” value is “high affinities” and the “D2 Inhibition rate (%)” value is given as 99.40%. For the same molecule, the ED50 in “Catalepsy assay in mice” is > 200 mg/kg.

Regarding `O=C(CCN1CCC(c2noc3cc(F)ccc23)CC1)c1cc2c3c(c1)CCN3C(=O)CC2` [Compound 12], on 5HT2A receptor, the inhibition at 10 µM was 94.4% and the “affinity with 5HT2A (in words)” value is recorded as “high affinities”. On 5HT2C receptor, the “affinity with 5HT2C (in words)” value is “low affinities” and the inhibition at 10 µM came to 56.5%. Further, the ED50 in the series with mice of Kunming breed was found to be 0.06 mg/kg. Further, at D3 receptor, the “affinity with D3 (in words)” value is listed as “high affinities” and the inhibition at 10 µM was 94.9%. Besides, on 5HT1A receptor, the “affinity with 5HT1A (in words)” value is recorded as “high affinities” and the inhibition at 10 µM was 96.5%. For the same molecule, in the series on D2 receptor, the “affinity with D2 (in words)” value is listed as “high affinities” and the “D2 Inhibition rate (%)” value came to 97.75%. The same molecule returned an ED50 in “Catalepsy assay in mice” of 8.45 mg/kg.
